Measured values as given in ChEMBL document CHEMBL6109180, “De Novo-Designed APC/C Inhibitors Provide a Rationale for Targeting RING-Type E3 Ubiquitin Ligases” (J Med Chem, 2025).
Values belong to the compound of their own block, whether it stands above or below them. Calls of active or inactive are those of the source. No cut-off for these calls is given here. Numbered stars: 1 amine (or outer) side, 2 acyl side, 3 side chain; on linkers, the order of the positions; unused ones are H or OH. Bridge positions count the residues as written; N and C are the ends. Square brackets hold non-standard residues; d marks the D form. Peptide text beside a SMILES is read from it. I, II: the chains in the order shown. X1 = O=C(O)CC[C@@H](C(=O)[*:2])N(CCOCCOCCOCCOCCOCCO[*:3])[*:1]; R8 = C=CCCCCCC[C@@](C)(N)C(=O)O; S5 = C=CCCC[C@](C)(N)C(=O)O; Pra = C#CC[C@H](N)C(=O)O; AEA = NCCOCC(=O)O

Tests used:
HeLa [1] = assay: Inhibition of recombinant APC/C/cdc20 (unknown origin) in metaphase-synchronized human HeLa cells co-expressing GST-tagged UBA1/UBE2C/methylated ubiquitin using RD680-labeled securin as substrate at 100 uM measured after 45 mins in presence of ATP by immuno-precipitation method; type: cell-based
HeLa [2] = assay: Inhibition of recombinant APC/C/cdc20 (unknown origin) in metaphase-synchronized human HeLa cells co-expressing GST-tagged UBA1/UBE2D1/methylated ubiquitin using cyclin B1 as substrate at 100 uM measured after 45 mins in presence of ATP by immuno-precipitation method
TERT-RPE1 = assay: Effect on time length of mitosis in human RPE-1 cells at 50 uM measured for 10 to 24 hrs by bright field microscopy; type: functional, cell-based; settings: time 10-24 hrs
[3] = target: T1, Ubiquitin-conjugating enzyme E2 C (Homo sapiens) (UniProt O00762); assay: Inhibition of UBE2C (unknown origin) auto-ubiquitination at 100 uM measured after 45 mins in presence of UBA1/His6-ubiquitin/ATP by SDS-PAGE analysis
T1 sequence (whole entry): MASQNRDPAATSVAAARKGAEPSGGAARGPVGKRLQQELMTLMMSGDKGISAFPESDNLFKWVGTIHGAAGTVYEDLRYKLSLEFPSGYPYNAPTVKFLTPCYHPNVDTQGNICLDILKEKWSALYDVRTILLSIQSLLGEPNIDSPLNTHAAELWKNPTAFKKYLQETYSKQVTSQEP

[4] = Non-competitve inhibition of recombinant APC/C/cdc20 (unknown origin) in metaphase-synchronized human HeLa cells co-expressing GST-tagged UBA1/UBE2C/methylated ubiquitin using RD680-labeled securin as substrate measured after 45 mins in presence of ATP by immuno-precipitation method; type: cell-based
Homo sapiens = species: Homo sapiens; assay: Potency index, ratio of Apcin IC50 to test compound IC50 for inhibition of APC/C (unknown origin)
[5] = Inhibition of recombinant APC/C/cdc20 (unknown origin) in metaphase-synchronized human HeLa cells co-expressing GST-tagged UBA1/UBE2C/methylated ubiquitin using RD680-labeled securin as substrate measured after 45 mins in presence of ATP by immuno-precipitation method
HeLa [6] = assay: Inhibition of recombinant APC/C/cdc20 (unknown origin) in metaphase-synchronized human HeLa cells co-expressing GST-tagged UBA1/UBE2C/methylated ubiquitin using cyclin B1 as substrate at 100 uM measured after 45 mins in presence of ATP by immuno-precipitation method
HeLa [7] = assay: Inhibition of recombinant APC/C/cdc20 (unknown origin) in metaphase-synchronized human HeLa cells co-expressing GST-tagged UBA1/UBE2C/methylated ubiquitin using RD680-labeled securin as substrate at 25 uM measured after 45 mins in presence of ATP by immuno-precipitation method relative to control
HeLa [8] = assay: (§1) Inhibition of recombinant APC/C/cdc20 (unknown origin) in metaphase-synchronized human HeLa cells co-expressing GST-tagged UBA1/UBE2S/methylated ubiquitin using cyclin B1 as substrate at 100 uM measured after 45 mins in presence of ATP by immuno-precipitation method; type: cell-based
HeLa [9] = assay: as §1, with “substrate assessed as decrease in UBE2S-driven chain elongation” for “substrate”; type: cell-based
[10] = target: E3 ubiquitin-protein ligase RBX1 (Homo sapiens) (UniProt P62877); assay: Binding affinity to RBX1 in asynchronously growing human HeLa cells incubated for 30 mins by pull down assay; type: cell-based
[11] = target: E3 ubiquitin-protein ligase CBL (Homo sapiens) (UniProt P22681); assay: Binding affinity to c-CBL in asynchronously growing human HeLa cells incubated for 30 mins by pull down assay; type: cell-based
[12] = target: T2, Polycomb complex protein BMI-1 (Homo sapiens) (UniProt P35226); assay: Binding affinity to BMI1 in asynchronously growing human HeLa cells incubated for 30 mins by pull down assay; type: cell-based
T2 sequence (whole entry): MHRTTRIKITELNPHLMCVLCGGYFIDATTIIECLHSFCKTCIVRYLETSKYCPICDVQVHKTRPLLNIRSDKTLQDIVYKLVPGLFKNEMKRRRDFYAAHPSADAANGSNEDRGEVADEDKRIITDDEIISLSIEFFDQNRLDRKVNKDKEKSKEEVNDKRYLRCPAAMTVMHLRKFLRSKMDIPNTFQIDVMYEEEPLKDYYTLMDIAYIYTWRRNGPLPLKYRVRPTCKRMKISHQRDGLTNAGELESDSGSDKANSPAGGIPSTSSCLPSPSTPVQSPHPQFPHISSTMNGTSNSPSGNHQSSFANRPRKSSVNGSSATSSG

[13] = target: Anaphase-promoting complex subunit 11 (Homo sapiens) (UniProt Q9NYG5); assay: Binding affinity to APC11 in asynchronously growing human HeLa cells incubated for 30 mins by pull down assay; type: cell-based
[14] = target: E3 ubiquitin-protein ligase Mdm2 (Homo sapiens) (UniProt Q00987); assay: Binding affinity to MDM2 in asynchronously growing human HeLa cells incubated for 30 mins by pull down assay; type: cell-based
[15] = target: Breast cancer type 1 susceptibility protein (Homo sapiens) (UniProt P38398); assay: Binding affinity to BRCA1 in asynchronously growing human HeLa cells incubated for 30 mins by pull down assay; type: cell-based
[16] = target: Baculoviral IAP repeat-containing protein 2 (Homo sapiens) (UniProt Q13490); assay: Binding affinity to c-IAP1 in asynchronously growing human HeLa cells incubated for 30 mins by pull down assay; type: cell-based
HeLa [17] = assay: Induction of mitotic arrest in human HeLa cells assessed as cells in prolongation at 50 uM measured up to 213 mins by time-lapse imaging analysis relative to control; type: functional; settings: 3.55 h
A549 = assay: Induction of mitotic arrest in human A549 cells assessed as cells in prolongation at 50 uM measured up to 213 mins by time-lapse imaging analysis relative to control; type: functional; settings: 3.55 h
HT-1080 = assay: Induction of mitotic arrest in human HT-1080 cells assessed as cells in prolongation at 50 uM measured up to 213 mins by time-lapse imaging analysis relative to control; type: functional; settings: 3.55 h
MDA-MB-231 = assay: Effect on time length of mitosis in human MDA-MB-231 cells at 50 uM incubated for 10 to 24 hrs by live cell microscopy; type: functional, cell-based; settings: time 10-24 hrs
RKO = assay: Induction of mitotic arrest in human RKO cells assessed as cells in prolongation at 50 uM measured up to 213 mins by time-lapse imaging analysis relative to control; type: functional; settings: 3.55 h
HeLa [18] = assay: Induction of mitotic arrest in human HeLa cells assessed as prolongation in metaphase at 50 uM measured up to 213 mins by time-lapse imaging analysis; type: functional, cell-based
HeLa [19] = assay: Induction of mitotic arrest in human HeLa cells assessed as time length at 50 uM measured up to 213 mins by time-lapse imaging analysis; type: functional; settings: 3.55 h
SW480 = assay: Effect on time length of mitosis in human SW480 cells at 50 uM incubated for 10 to 24 hrs by live cell microscopy; type: functional, cell-based; settings: time 10-24 hrs
[20] = Drug localization in nucleus of human HeLa cells at 50 uM incubated for 4 to 10 hrs by AF488 dye based analysis; type: ADME, subcellular; settings: time 4-10 hrs
HeLa [21] = assay: Induction of mitosis prolongation in human HeLa cells assessed as time taken at 50 uM measured for 10 to 48 hrs by live cell imaging analysis; type: functional; settings: time 10-48 hrs
HeLa [22] = assay: Binding affinity to APC2 in asynchronous human HeLa cells incubated for 2 hrs by pull down assay; type: cell-based
[23] = Drug localization in cytoplasm of human HeLa cells at 50 uM incubated for 10 hrs by AF488 dye based analysis; type: ADME, subcellular
[24] = target: Anaphase-promoting complex subunit 11 (Homo sapiens) (UniProt Q9NYG5); assay: Binding affinity to APC11 in asynchronous human HeLa cells incubated for 2 hrs by pull down assay; type: cell-based
[25] = Drug localization in nucleoplasm of human HeLa cells at 50 uM incubated for 10 hrs by AF488 dye based analysis; type: ADME, subcellular

Chain of Anaphase-promoting complex subunit 11 (Homo sapiens) (Q9NYG5 whole entry, one chain of several): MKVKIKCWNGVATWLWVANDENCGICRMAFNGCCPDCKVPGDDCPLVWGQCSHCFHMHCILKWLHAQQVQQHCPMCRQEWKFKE
Chain of Breast cancer type 1 susceptibility protein (Homo sapiens) (P38398 whole entry, looked up): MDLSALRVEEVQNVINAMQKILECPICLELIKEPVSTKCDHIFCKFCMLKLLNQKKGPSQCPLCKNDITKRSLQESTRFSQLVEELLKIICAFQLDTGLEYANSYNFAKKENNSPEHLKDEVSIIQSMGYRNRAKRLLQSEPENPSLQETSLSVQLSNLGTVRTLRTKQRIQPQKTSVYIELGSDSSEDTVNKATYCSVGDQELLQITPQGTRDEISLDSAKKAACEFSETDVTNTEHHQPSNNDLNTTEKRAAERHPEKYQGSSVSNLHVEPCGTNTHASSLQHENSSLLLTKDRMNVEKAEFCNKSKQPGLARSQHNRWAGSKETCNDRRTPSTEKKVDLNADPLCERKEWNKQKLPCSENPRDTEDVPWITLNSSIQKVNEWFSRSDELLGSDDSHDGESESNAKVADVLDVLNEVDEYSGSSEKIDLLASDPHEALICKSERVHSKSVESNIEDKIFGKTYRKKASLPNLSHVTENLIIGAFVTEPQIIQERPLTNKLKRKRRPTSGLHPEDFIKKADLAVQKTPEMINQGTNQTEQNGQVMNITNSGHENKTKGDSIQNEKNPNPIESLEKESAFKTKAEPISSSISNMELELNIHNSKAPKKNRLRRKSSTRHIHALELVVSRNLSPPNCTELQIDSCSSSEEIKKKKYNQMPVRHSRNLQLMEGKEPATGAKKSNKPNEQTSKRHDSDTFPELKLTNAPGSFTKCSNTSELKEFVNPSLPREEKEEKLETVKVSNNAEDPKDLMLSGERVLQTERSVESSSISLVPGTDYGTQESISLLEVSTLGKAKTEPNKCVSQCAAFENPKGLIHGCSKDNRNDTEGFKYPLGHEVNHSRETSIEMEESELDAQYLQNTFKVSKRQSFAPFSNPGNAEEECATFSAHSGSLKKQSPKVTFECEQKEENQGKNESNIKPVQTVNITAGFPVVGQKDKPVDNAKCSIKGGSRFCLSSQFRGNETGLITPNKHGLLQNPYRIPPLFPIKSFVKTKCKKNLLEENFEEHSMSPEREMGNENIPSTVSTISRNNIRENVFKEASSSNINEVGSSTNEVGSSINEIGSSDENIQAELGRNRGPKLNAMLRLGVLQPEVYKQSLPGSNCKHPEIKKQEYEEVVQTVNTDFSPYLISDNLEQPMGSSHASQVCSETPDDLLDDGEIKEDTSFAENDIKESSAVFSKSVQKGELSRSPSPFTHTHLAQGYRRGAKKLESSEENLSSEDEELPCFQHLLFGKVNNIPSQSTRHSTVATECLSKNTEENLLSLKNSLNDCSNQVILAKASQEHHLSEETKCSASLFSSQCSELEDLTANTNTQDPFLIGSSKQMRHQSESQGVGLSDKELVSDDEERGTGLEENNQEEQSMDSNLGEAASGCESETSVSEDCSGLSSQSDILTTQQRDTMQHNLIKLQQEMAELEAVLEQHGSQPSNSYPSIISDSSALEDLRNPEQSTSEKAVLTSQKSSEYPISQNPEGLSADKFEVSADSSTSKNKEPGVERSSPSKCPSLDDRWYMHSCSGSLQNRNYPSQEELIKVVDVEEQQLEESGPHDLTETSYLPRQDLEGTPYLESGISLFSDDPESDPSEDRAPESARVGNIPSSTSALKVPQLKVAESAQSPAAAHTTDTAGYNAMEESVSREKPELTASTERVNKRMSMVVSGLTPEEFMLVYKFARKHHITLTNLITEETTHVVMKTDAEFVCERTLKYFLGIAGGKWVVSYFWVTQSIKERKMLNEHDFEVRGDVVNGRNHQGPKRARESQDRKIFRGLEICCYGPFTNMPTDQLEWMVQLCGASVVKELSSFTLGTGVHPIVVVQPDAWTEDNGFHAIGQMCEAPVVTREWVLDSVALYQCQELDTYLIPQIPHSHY
Chain of Baculoviral IAP repeat-containing protein 2 (Homo sapiens) (Q13490 whole entry): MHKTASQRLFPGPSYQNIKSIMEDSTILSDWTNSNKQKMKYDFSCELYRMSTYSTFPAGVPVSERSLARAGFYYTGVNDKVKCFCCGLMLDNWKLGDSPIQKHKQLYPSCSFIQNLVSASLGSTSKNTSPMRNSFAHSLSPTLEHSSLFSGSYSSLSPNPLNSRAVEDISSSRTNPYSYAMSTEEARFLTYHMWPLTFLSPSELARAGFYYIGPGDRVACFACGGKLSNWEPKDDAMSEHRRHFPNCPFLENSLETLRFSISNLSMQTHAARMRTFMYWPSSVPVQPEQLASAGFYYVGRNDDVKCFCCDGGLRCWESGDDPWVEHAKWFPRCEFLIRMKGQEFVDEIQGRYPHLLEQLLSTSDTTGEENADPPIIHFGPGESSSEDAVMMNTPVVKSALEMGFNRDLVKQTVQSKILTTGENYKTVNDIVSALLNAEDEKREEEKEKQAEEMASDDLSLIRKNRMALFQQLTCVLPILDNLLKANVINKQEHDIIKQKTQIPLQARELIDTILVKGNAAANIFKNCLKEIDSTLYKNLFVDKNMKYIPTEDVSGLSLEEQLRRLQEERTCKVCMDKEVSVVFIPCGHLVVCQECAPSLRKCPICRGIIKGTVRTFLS
Chain of E3 ubiquitin-protein ligase Mdm2 (Homo sapiens) (Q00987 whole entry, looked up): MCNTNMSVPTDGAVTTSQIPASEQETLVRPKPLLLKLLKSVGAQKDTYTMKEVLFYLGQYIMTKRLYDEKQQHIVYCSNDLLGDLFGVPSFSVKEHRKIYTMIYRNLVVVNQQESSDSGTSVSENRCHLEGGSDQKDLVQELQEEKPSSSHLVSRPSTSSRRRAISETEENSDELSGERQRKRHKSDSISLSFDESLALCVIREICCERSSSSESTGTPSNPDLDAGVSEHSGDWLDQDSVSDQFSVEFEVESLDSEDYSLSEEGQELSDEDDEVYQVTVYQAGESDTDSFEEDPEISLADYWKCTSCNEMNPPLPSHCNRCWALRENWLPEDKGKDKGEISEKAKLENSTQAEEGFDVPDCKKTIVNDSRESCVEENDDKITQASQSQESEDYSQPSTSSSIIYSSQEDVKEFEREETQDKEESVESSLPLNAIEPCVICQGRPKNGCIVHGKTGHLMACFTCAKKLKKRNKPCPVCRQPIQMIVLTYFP
Chain of E3 ubiquitin-protein ligase RBX1 (Homo sapiens) (P62877 whole entry, looked up): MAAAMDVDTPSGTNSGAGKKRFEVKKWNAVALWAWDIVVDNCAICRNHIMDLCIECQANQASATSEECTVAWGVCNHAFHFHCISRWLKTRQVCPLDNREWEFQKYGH

inhibition [3]: inactive
Ratio IC50 (Homo sapiens): 4.5
IC50 [5]: 1.96 µM
SMILES: CC[C@H](C)[C@@H]1NC(=O)[C@H](CCC(=O)O)NC(=O)[C@H](CCCCN)NC(=O)[C@H]([C@@H](C)CC)NC(=O)[C@](C)(NC(=O)[C@H](Cc2c[nH]c3ccccc23)NC(=O)[C@H](Cc2c[nH]c3ccccc23)NC(=O)[C@H](CCC(=O)O)NC(C)=O)CCCCCC/C=C\CCC[C@@](C)(C(=O)N[C@@H](CCCNC(=N)N)C(=O)N[C@@H](CCCNC(=N)N)C(=O)N[C@@H](C)C(N)=O)NC(=O)[C@H](CCCNC(=N)N)NC(=O)[C@H](CCC(N)=O)NC1=O (Ac-EWW[R8]IKEIQR[S5]RRA-NH2; staple (Z) 4-11)
inhibition (HeLa [1]): Active; Compound Exerted Better Inhibitory Effect Than Tame
inhibition (HeLa [2]): Active
Activity (TERT-RPE1): No effect
Ki [4]: 5.03 µM
inhibition (HeLa [6]): Active
inhibition (HeLa [7]): > 80%
inhibition (HeLa [8]): Active
inhibition (HeLa [9]): 100%

Activity [10]: inactive
Activity [11]: Active
Activity [12]: inactive
Activity [13]: Active
Activity [14]: Active
Activity [15]: inactive
Activity [16]: inactive
SMILES: C#CC[C@H](NC(C)=O)C(=O)N[C@@H](CCCNC(=N)N)C(=O)N[C@H]1CSSC[C@@H](C(=O)N[C@@H](CCCNC(=N)N)C(N)=O)NC(=O)[C@H](Cc2c[nH]c3ccccc23)NC(=O)[C@H](Cc2ccccc2)NC(=O)[C@H]([C@@H](C)O)NC(=O)[C@H](CCCNC(=N)N)NC(=O)[C@@H]2CCCN2C(=O)CNC(=O)[C@H](Cc2c[nH]c3ccccc23)NC(=O)[C@H](Cc2cnc[nH]2)NC1=O (Ac-[Pra]RCHWGPRTFWCR-NH2; disulfide 3-12)

SMILES: CC[C@H](C)[C@@H]1NC(=O)[C@H](CCC(=O)O)NC(=O)[C@H](CCCCN)NC(=O)[C@H]([C@@H](C)CC)NC(=O)[C@](C)(NC(=O)[C@H](Cc2c[nH]c3ccccc23)NC(=O)[C@H](Cc2c[nH]c3ccccc23)NC(=O)[C@H](CCC(=O)O)NC(=O)COCCNC(=O)CNC(=O)[C@H](Cc2ccccc2)NC(=O)[C@H](Cc2c[nH]c3ccccc23)NC(=O)[C@H](Cc2ccccc2)NC(=O)CNC(C)=O)CCCCCC/C=C\CCC[C@@](C)(C(=O)N[C@@H](CCCNC(=N)N)C(=O)N[C@@H](CCCNC(=N)N)C(=O)N[C@@H](C)C(N)=O)NC(=O)[C@H](CCCNC(=N)N)NC(=O)[C@H](CCC(N)=O)NC1=O (Ac-GFWFG[AEA]EWW[R8]IKEIQR[S5]RRA-NH2; staple (Z) 10-17)
Activity (HeLa [17]): 75%
Activity (A549): 75%
Activity (HT-1080): 75%
Activity (MDA-MB-231): No effect
Activity (RKO): 75%
Activity (HeLa [18]): Active
Time (HeLa [19]): <=2 hr
Activity (SW480): No effect

Drug uptake [20]: Active
Drug uptake [23]: Active
Activity [24]: inactive
Drug uptake [25]: Active
SMILES: C#CC[C@H](NC(=O)[C@H](Cc1c[nH]c2ccccc12)NC(=O)[C@H](CCC(=O)O)NCCOCCOCCOCCOCCOCCOC(=O)CNC(=O)[C@H](Cc1ccccc1)NC(=O)[C@H](Cc1c[nH]c2ccccc12)NC(=O)[C@H](Cc1ccccc1)NC(=O)CNC(C)=O)C(=O)N[C@]1(C)CCCCCC/C=C\CCC[C@@](C)(C(=O)N[C@@H](CCCNC(=N)N)C(=O)N[C@@H](CCCNC(=N)N)C(=O)N[C@@H](C)C(N)=O)NC(=O)[C@H](CCCNC(=N)N)NC(=O)[C@H](CCC(N)=O)NC(=O)[C@H]([C@@H](C)CC)NC(=O)[C@H](CCC(=O)O)NC(=O)[C@H](CCCCN)NC(=O)[C@H]([C@@H](C)CC)NC1=O (I: H-[X1]W[Pra][R8]IKEIQR[S5]RRA-NH2 / II: Ac-GFWFG; ester I:1-II:C; staple (Z) I:4-I:11)
Time (HeLa [21]): ~74 min
Activity (HeLa [22]): inactive
